This passage reports LogP and chromatographic logP results from patent publication US12534456B2, “Heterocyclyl pyridines as novel fungicides” (Bayer Aktiengesellschaft, priority 2020, dated 2026).

A short description of one data set: physchem. The data set is classed as physicochemical.
Details: not given
How it is done:
Measurement of Log P values as provided herein was performed according to EEC directive 79/831 Annex V.A8 by HPLC (High Performance Liquid Chromatography) on reversed phase columns with the following methods: • ^[a]
If more than one Log P value is available within the same method, all the values are given and separated by “+”.
Lambda-max-values were determined using UV-spectra from 200 nm to 400 nm and the peak values of the chromatographic signals
`FC(F)(F)c1cccc(Oc2cnc(Cl)cc2C2=NOCC(c3ccc4ccccc4c3)N2)c1` (racemic) [Compound I-053]: the LogP was 4.20^[a].

With `Cc1cccc(Oc2cnc(Cl)cc2C2=NOCC(Cc3ccc(Cl)cc3Cl)N2)c1F` (centres unmarked) [Compound I-135], the LogP is 4.75^[a]. As for `FC(F)(F)c1cccc(Oc2cnc(Cl)cc2C2=NOCC(Cc3cc(Cl)sc3Cl)N2)c1` (centres unmarked) [Compound I-145], the LogP was 4.83^[a]. The same measure, in the same setting: for `FC(F)(F)c1cccc(Oc2cnc(Cl)cc2C2=NOCC(Cc3ccc(Cl)cc3Cl)N2)n1` (racemic) [Compound I-128] the value was 4.44^[a]; for `COc1cc(C(=NO)NC(CCl)Cc2ccc(C)cc2Cl)c(Br)cn1` (centres unmarked) [18-03], 4.12^[a]; for `Cc1ccc(CC2CON=C(c3cc(Cl)ncc3Oc3cccc(C4CC4)c3F)N2)c(C)c1` (racemic) [Compound I-014], 4.89^[a]. Still for that read-out and setting: for `COc1cccc(Oc2cnc(Cl)cc2C(=O)NC(CON2C(=O)c3ccccc3C2=O)Cc2ccc(C)cc2C)c1` (centres unmarked) [3-09] the value was 4.80^[a].

Consider `CC(=O)c1ccc(CC2CON=C(c3cc(Cl)ncc3Oc3cccc(C(F)F)c3)N2)c(Cl)c1` (racemic) [Compound I-038], for which the LogP is 3.47^[a]. Regarding `Cc1ccc(CC2CON=C(c3cc(Cl)ncc3Oc3cccc(Cl)c3F)N2)c(Cl)c1` (racemic) [Compound I-087], the LogP was 4.66^[a].

In the case of `Cc1cccc(Oc2cnc(C)cc2C2=NOCC(Cc3ccc(C)cc3C)N2)c1` (racemic) [Compound I-008], the LogP was 3.61^[a].

As to `C#Cc1ccc(CC2CON=C(c3cc(C#C)ncc3Oc3cccc(C(F)(F)F)c3)N2)c(C)c1` (racemic) [Compound I-074], the LogP is 3.75^[a]. For `O=C(NC(CON1C(=O)c2ccccc2C1=O)Cc1ccc(Br)cc1Cl)c1cc(Cl)ncc1Oc1cccc(C(F)F)c1` (centres unmarked) [3-10], the LogP was 5.00^[a]. As to `Cc1ccc(CC2CON=C(c3cc(Cl)ncc3Br)N2)c(C)c1` (centres unmarked) [7-01], the LogP was 3.31^[a]. Turning to `COCc1cccc(Oc2cnc(Cl)cc2C2=NOCC(Cc3ccc(C)cc3C)N2)c1` (centres unmarked) [Compound I-153], the LogP is 4.10^[a].

`COC(=O)c1cc(C#C[Si](C)(C)C)ncc1Oc1cccc(C(F)(F)F)c1` [Compound 1-03]: the LogP was 5.35^[a]. Consider `Cc1ccc(CC2CON=C(c3cc(Cl)ncc3Oc3cccc(Cl)c3)N2)c(C)c1` (single isomer, unassigned) [Compound I-012], for which the LogP is 4.53^[a]. Turning to `Cc1ccc(CC2CON=C(c3cc(C)ncc3Oc3cccc(C4CC4)c3F)N2)c(Cl)c1` (racemic) [Compound I-031], the LogP is 4.08^[a]. On to `C=Cc1ccc(CC2CON=C(c3cc(Cl)ncc3Oc3cccc(C(F)F)c3)N2)c(Cl)c1` (racemic) [Compound I-040], for which the LogP was 4.29^[a]. Same read-out and setting: as for `Cc1ccc(CC(CCl)NC(=NO)c2cc(Cl)nc(Cl)c2Oc2cccc(C(F)(F)F)c2)c(C)c1` (centres unmarked) [16-07], the figure is 5.35^[a]; as for `Cc1ccc(CC(CCl)NC(=NO)c2cc(Cl)ncc2Oc2cccc(C(F)(F)F)c2)cc1` (centres unmarked) [16-04], 4.59^[a]. On the same count and under the same terms, for `Cc1ccc(CC2CON=C(c3cc(Cl)ncc3Oc3ccc4c(c3)CCO4)N2)c(C)c1` (racemic) [Compound I-111] the value was 4.23^[a]; for `O=C(O)c1cc(Cl)ncc1Oc1cccc(C2CC2)c1F` [Compound 1-06], 2.97^[a]. Take `COc1ccc(C2CCON=C(c3cc(Cl)ncc3Oc3cccc(C(F)(F)F)c3)N2)cc1` (centres unmarked) [Compound I-155]: the LogP is 1.90^[a]. Turning to `CCOc1cccc(Oc2cnc(Cl)cc2C2=NOCC(Cc3ccc(C)cc3C)N2)c1` (centres unmarked) [Compound I-142], the LogP was 4.59^[a]. Same read-out and setting: for `CC(=O)c1cccc(Oc2cnc(Cl)cc2C2=NOCC(Cc3ccc(C)cc3C)N2)c1` (racemic) [Compound I-117] the value was 3.70^[a]; for `COc1cc(C(=O)NC(CCl)Cc2ccc(C)cc2Cl)c(Br)cn1` (centres unmarked) [17-03], 3.94^[a]; for `Oc1cc(C2=NOCC(Cc3ccc(Br)cc3Cl)N2)c(Oc2cccc(C(F)F)c2)cn1` (centres unmarked) [Compound I-137], 4.56^[a]. On the same count and under the same terms, as for `COc1cccc(Oc2cnc(Cl)cc2C2=NOCC(Cc3ccc(Br)cc3Cl)N2)c1` (racemic) [Compound I-006], the figure is 4.37^[a]; as for `Cc1ccc(Cl)c(CC2CON=C(c3cc(Cl)ncc3Br)N2)c1` (centres unmarked) [7-09], 3.46^[a]. Still for that read-out and setting: as for `Cc1cccc(Oc2cnc(Cl)cc2C(=O)O)c1` [Compound 1-08], the figure is 2.60^[a].

Turning to `FC(F)(F)c1cccc(Oc2cnc(Cl)cc2C2=NOCC(Cc3csc(C(F)(F)F)c3)N2)c1` (racemic) [Compound I-068], the LogP was 4.40^[a].

In the case of `FC(F)(F)c1cccc(Oc2cnc(Cl)cc2C2=NOCC(c3ccc(Cl)cc3)N2)c1` (racemic) [Compound I-050], the LogP is 3.99^[a]. On the same count and under the same terms, for `Cc1ccc(CC(CON2C(=O)c3ccccc3C2=O)NC(=O)OC(C)(C)C)c(Cl)c1` (centres unmarked) [Compound 2-05] the value was 4.41^[a]; for `Cc1ccc(CC(CCNC(c2ccccc2)(c2ccccc2)c2ccccc2)NC(=O)c2cc(Cl)ncc2Oc2cccc(C(F)(F)F)c2)c(C)c1` (centres unmarked) [4-14], 5.35^[a]. Regarding `COc1cc(C2=NOCC(Cc3ccc(C)cc3Cl)N2)c(Oc2cccc(Cl)c2F)cn1` (racemic) [Compound I-067], the LogP was 4.51^[a]. The same measure, in the same setting: for `Cc1ccc(CC2CON=C(c3cc(Cl)ncc3Oc3cccc(C4CC4F)c3)N2)c(C)c1` (mixture of isomers) [Compound I-143] the value was 4.38^[a]; for `O=C(NC(CCl)Cc1csc(Cl)c1)c1cc(Cl)ncc1Oc1cccc(C(F)(F)F)c1` (centres unmarked) [14-11], 4.96^[a]; for `Fc1c(Oc2cnc(Cl)cc2C2=NOCC(Cc3ccc(Cl)cc3Cl)N2)cccc1C1CC1` (racemic) [Compound I-024], 4.98^[a].

On to `N#Cc1ccc(C2CON=C(c3cc(Cl)ncc3Oc3cccc(C(F)(F)F)c3)N2)cc1` (racemic) [Compound I-080], for which the LogP is 3.30^[a].

Regarding `Cc1ccc(CC2CON=C(c3cc(Cl)ncc3Oc3cccc(Br)c3F)N2)c(Cl)c1` (racemic) [Compound I-079], the LogP is 4.70^[a].

On to `Cc1ccc(CC(CCl)NC(=NO)c2cc(Cl)ncc2Oc2cccc(C(F)(F)F)c2)c(C)c1` (centres unmarked) [16-03], for which the LogP is 4.80^[a]. Turning to `C=Cc1cc(C2=NOCC(Cc3ccc(C)cc3)N2)c(Oc2cccc(C(F)(F)F)c2)cn1` (racemic) [Compound I-059], the LogP is 4.19^[a]. For the molecule `Cc1ccc(CC(CCN)NC(=O)c2cc(Cl)ncc2Oc2cccc(C(F)(F)F)c2)c(C)c1` (centres unmarked) [4-13], the LogP is 2.41^[a]. Same read-out and setting: as for `ON=C(NC(CCl)Cc1ccc(C(F)(F)F)cc1Cl)c1cc(Cl)ncc1Oc1cccc(C(F)(F)F)c1` (centres unmarked) [16-09], the figure is 4.97^[a]; as for `Cc1ccc(CC2CON=C(c3cc(Cl)ncc3Oc3cccc(OC(F)F)c3F)N2)c(C)c1` (racemic) [Compound I-035], 4.23^[a]. The same measure, in the same setting: for `Cc1ccc(C2CON=C(c3cc(Cl)ncc3Oc3cccc(C(F)(F)F)c3)N2)cc1C` (racemic) [Compound I-049] the value was 4.24^[a]. On the same count and under the same terms, as for `O=C(NC(CON1C(=O)c2ccccc2C1=O)Cc1ccc(Cl)cc1Cl)c1cc(Cl)ncc1Oc1cccc(C2CC2)c1F` (centres unmarked) [3-04], the figure is 5.54^[a]; as for `Cc1ccc(CC2CNN=C(c3cc(Cl)ncc3Oc3cccc(C(F)(F)F)c3)N2)c(C)c1` (racemic) [Compound I-084], 2.86^[a]. Consider `O=C(O)c1cc(Cl)ncc1Oc1cccc(C2CC2)c1` [Compound 1-12], for which the LogP was 2.87^[a]. As to `Cc1ccc(C(CCl)NC(=NO)c2cc(Cl)ncc2Oc2cccc(C(F)(F)F)c2)cc1` (centres unmarked) [16-12], the LogP was 4.19^[a]. Turning to `CC(=O)Oc1cccc(Oc2cnc(Cl)cc2C2=NOCC(Cc3ccc(C)cc3C)N2)c1` (centres unmarked) [Compound I-134], the LogP is 3.90^[a]. The same measure, in the same setting: as for `O=C(O)c1cc(Cl)nc(F)c1Oc1cccc(C(F)(F)F)c1` [Compound 1-14], the figure is 2.95^[a].

As for `NOCC(Cc1ccc(Br)cc1Cl)NC(=O)c1cc(Cl)ncc1Oc1cccc(C2CC2)c1F` (centres unmarked) [4-05], the LogP is 4.08^[a]. Same read-out and setting: as for `Cc1ccc(CC(CCl)NC(=O)c2c(Oc3cccc(C(F)(F)F)c3)cnc(Cl)c2I)c(C)c1` (centres unmarked) [14-04], the figure is 5.18^[a]. On the same count and under the same terms, for `Cc1ccc(CC(CON)NC(=O)c2cc(Cl)ncc2Oc2cccc(C3CC3)c2F)c(C)c1` (centres unmarked) [4-06] the value was 3.72^[a]; for `FC(F)(F)c1cccc(Oc2cnc(Cl)cc2C2=NOCC(Cc3csc(Cl)c3)N2)c1` (centres unmarked) [Compound I-138], 4.38^[a].

Consider `Cc1ccc(CC(CCl)NC(=O)c2cc(Cl)nc(F)c2Oc2cccc(C(F)(F)F)c2)c(C)c1` (centres unmarked) [14-06], for which the LogP was 5.45^[a]. Same read-out and setting: as for `CC(=O)c1cc(C2=NOCC(Cc3ccc(C)cc3)N2)c(Oc2cccc(C(F)(F)F)c2)cn1` (racemic) [Compound I-061], the figure is 4.07^[a]; as for `Cc1ccc(CC2CN(C=O)N=C(c3cc(Cl)ncc3Oc3cccc(C(F)(F)F)c3)N2)c(C)c1` (racemic) [Compound I-094], 4.49^[a]. Still for that read-out and setting: for `Cc1ccc(CC2CON=C(c3c(Oc4cccc(C(F)(F)F)c4)cnc(Cl)c3C)N2)c(C)c1` (racemic) [Compound I-124] the value was 4.55^[a]; for `FC(F)(F)c1cccc(Oc2cnc(Cl)cc2C2=NOCC(c3ccc4c(c3)OCCO4)N2)c1` (racemic) [Compound I-052], 3.48^[a].

The same data set, now with this note: Table 22, compounds of formula (17); method [a].
Regarding `Cc1ccc(CC(CCl)NC(=O)c2ccncc2Br)cc1` (racemic) [Compound 17-01, 3-bromo-N-[(2RS)-1-chloro-3-(4-methylphenyl)propan-2-yl]isonicotinamide], the chromatographic logP (commonly lipophilicity estimated from chromatographic retention) worked out at 2.8.
